Results on one compound are retold here after patent publication US6846845B2, “Heat shock protein inducer” (Eisai Co., Ltd., priority 2002, dated 2005).

In assay [1] the test system is HSP70. The assay is described as follows: HSP70 induction in the heart after oral administration (Western blotting), Example 1. Type of assay: in vivo, rat. As to the method:
Male Sprague-Dawley rats (220-250 g) were anesthetized with pentobarbital (20 mg/kg, i.p.). They were subjected to whole-body hyperthermia by soaking for 10 minutes in a bath in which the water temperature was maintained at 43° C. (Heat Stress Group), with their heads on pillows to avoid aspiration of water. rectal temperatures were measured as body temperatures rose throughout the whole-body hyperthermia.
An emulsion of 100% by weight of geranylgeranylacetone (GGA) with 5% by weight of gum arabic and 0.008% by weight of tocopherol was given orally to the rats described above. The oral dosages were 50 mg/kg, 100 mg/kg, 200 mg/kg and 400 mg/kg (GGA groups). […] The vehicle was administered orally to the Control Group.
To examine the time-dependent expression of HSP70, rats were killed by deep anesthesia with pentobarbital (50 mg/kg, i.v.) 6, 12, 24 and 48 hours after administration of the GGA or vehicle or 6, 12, 24 and 48 hours after heat stress.
Next, the hearts were removed from the killed rats and frozen in liquid nitrogen.
Western blotting was then performed (Maloyan A, Palmon A, Horowitz M. Heat acclimation increases the basal HSP70 level and alters its production dynamics during heat stress. Am J Physiol 1999; 276:R1506-R1515). The frozen hearts were homogenized with SDS (sodium dodecyl sulfate) buffer, centrifuged and boiled.
The total protein concentration of the myocardium was quantified by the Bradford method (Bradford M M. A rapid and sensitive method for quantitation of microgram quantities of protein utilizing the principle of protein-dye binding. Anal Biochem 1976; 72:248-254). The prepared hearts were then diluted in electrolyte buffer. Total protein in each heart was subjected to electrophoresis on 8.5% SDS-Polyacrylamide gel (SDS-PAGE), and transferred to a PVDF (polyvinylidene fluoride) membrane. After blocking with 0.5% nonfat milk, the PVDF membranes were incubated with antibodies. The proteins were detected by exposing the ECL cells with Hyperfilm (Amersham Pharmacia, Buckinghamshire, UK). Based on this, the amount of proteins on the immunoblots was quantified using National Institutes of Health (NIH) imaging software.

The subject of assay [2] is myocardial cells. The assay is described as follows: Electron microscope findings in left ventricular papillary muscle after ischemia/reperfusion. Type of assay: in vivo, rat. The conditions noted are these: GGA-treated rats, 20 min no-flow ischemia and 30 min reperfusion. As to the method:
After 30 minutes of reperfusion […] 20 minutes of no-flow ischemia, the papillary muscle of the left ventricle was immediately removed from the GGA-treated and Control hearts, and cut into small blocks. The tissue blocks were then fixed in a cacodylate buffered (pH 7.4) solution containing 2.5% glutaraldehyde and paraformaldehyde at 4° C. for 2 hours, and postfixed in a cocodylate buffered (pH 7.4) solution containing 2% osmium tetroxide and 0.5% potassium ferrocyanide at 4° C. for 2 hours. The tissue blocks were then dehydrated in ethanol and embedded in epoxy resin. Ultra-thin sections were stained with uranyl acetate and lead cistate, and were viewed under a transmission electron microscope (JOEL-100CX, Tokyo).

Where [3] appears, read: oral, 24 hours after administration, FIG. 2.

On to `CC(=O)CCC=C(C)CCC=C(C)CCC=C(C)CCC=C(C)C` [GGA, 6, 10, 14, 18-tetramethyl-5,9, 13, 17-nonadecatetraen-2-one], for which the “detected (induced) amount of HSP70 in the heart versus dosage” value in assay [1] (oral 0-400 mg/kg, hearts removed 24 hours after administration, FIG. 2) is “increased as the dosage increased”. Also, the “detected amount of HSP70 in the heart after 48 hours” value in assay [1] (oral 200 mg/kg, 48 hours after administration, FIG. 1) is recorded as “decreased”. In assay [1] (oral 200 mg/kg, FIG. 1), the “time at which the detected (induced) amount of HSP70 peaked” value is 24 h and the “time from which HSP70 was detected in the heart” value is given as “about 6 hours”. For the same compound, in assay [1] (setting [3]), the “detected amount of HSP70 above 400 mg/kg” value was “No increase in detected amount was seen” and the “dosage at which HSP70 induction peaked” value came to 200 mg/kg. Also, the “microstructure of myocardial cells by transmission electron microscopy” value in assay [2] is reported as “preserved microstructurally”.
